Laboratory results as given in patent publication US9687467B2, “Diagnosis and treatment of taxane-resistant cancers” (Children's Medical Center Corporation, priority 2011, dated 2017).

Columns and labels:
MES-SA^DX5 cells = assay: MTT cell viability assay, paclitaxel response after miRNA transfection; format: cell-based, human; details: cells transfected with scrambled non-targeting miRNA, 100 nM paclitaxel
Procedure: The paclitaxel-resistant cell lines MES-SA^DX5 and A549^TR were transfected with a scrambled non-targeting miRNA (control) and an miR-135a mimic (mimic), respectively. Cells were subsequently treated with 100 nM paclitaxel and cell viability was assessed using the MTT assay (FIGS. 2A, 2B). The percentage of apoptotic cells was assessed by Annexin V-staining and FACS analysis (FIGS. 2C, 2D). Values are presented as percent cell survival in paclitaxel-treated cells relative to untreated cells. *P<0.05, **P<0.001 as determined by Wilcoxon's rank sum test.
Cell growth inhibition was determined by a 3-(4,5-dimethylthiazol-2-yl)-2,5-diphenyltetrazolium (MTT) bromide assay. Briefly, ˜2.5×10^4 cells were plated in a 96-well plate and paclitaxel was added in appropriate concentrations 24 hours later. […] Absorbance was determined using a 96-well SpectraMax plate reader (Molecular Devices, Sunnyvale, Calif.) at 560 nm and 650 nm (background).
Double-stranded RNA oligos representing a mature sequence that mimics endogenous miR-135a, anti-miR-135a designed to inhibit endogenous miR-135a, and anti-miR negative control were all obtained from Ambion™ and were transfected into cell lines at ˜50% confluence at 30 nM concentration with siLentFect (Bio-Rad™). […] The next day, luciferase activity was measured using the Dual-Glo® Luciferase assay system (Promega™, Madison, Wis.). […]

T28.2 xenografts = assay: Retransplantation xenograft, paclitaxel-sensitive control clone; format: in vivo, nude mice
Procedure: (§1) FIGS. 6A-6C are a series of graphs showing data that validate the A549 in vivo paclitaxel resistance model. (FIG. 6A) Tumor cell lines established after an initial round of inoculation and treatment with either vehicle (T28.2) or 15 mg/kg paclitaxel (T20.2) were harvested during log-phase growth and reinjected subcutaneously into the flanks of nude mice. When the average tumor volume was ˜120 mm^3, vehicle (open circles or squares) or 15 mg/kg paclitaxel (closed circles or squares) was administered intraperitoneally every other day. Treatment was continued until tumors reached approximately four times their initial volume. Each curve represents the average tumor growth±s.e.m. for 10 mice per group. […] Each bar represents the average tumor growth±s.e.m. for 10 mice per group. NS: not significant, *P<0.05 as determined by Wilcoxon's rank sum test. (FIG. 6C) Tumors were harvested, cultured in vitro and cell viability was assessed using the MTT assay. Values are presented as percentage of cell survival in paclitaxel-treated cells relative to untreated cells. White bars represent LC50s from tumor cell lines established from T28.2 tumors treated with vehicle. Black bars represent LC50s from cell lines established from T20.2 tumors treated with paclitaxel. Shown are the mean±s.e.m. of two independent experiments, each performed in triplicate. *P<0.05 as determined by Wilcoxon's rank sum test. […]

T20.2 xenografts = assay: Retransplantation xenograft, paclitaxel-resistant clone; format: in vivo, nude mice
Procedure: as §1

CC(=O)O[C@H]1C(=O)[C@@]2(C)[C@H]([C@H](OC(=O)c3ccccc3)[C@]3(O)C[C@H](OC(=O)[C@H](O)[C@@H](NC(=O)c4ccccc4)c4ccccc4)C(C)=C1C3(C)C)[C@]1(OC(C)=O)CO[C@@H]1C[C@@H]2O [paclitaxel]
cell survival in paclitaxel-treated cells relative to untreated cells (MES-SA^DX5 cells): 102.2%
tumor growth after paclitaxel treatment (T28.2 xenografts; 15 mg/kg paclitaxel i.p.): shrank substantially
reduction of relative tumor burden at the end of the experiment (T28.2 xenografts; 15 mg/kg paclitaxel i.p. vs vehicle, P=0.003): 4.5 fold
tumor growth after paclitaxel treatment (T20.2 xenografts; 15 mg/kg paclitaxel i.p.): only a slight delay in tumor growth
reduction of relative tumor burden at the end of the experiment (T20.2 xenografts; 15 mg/kg paclitaxel i.p. vs vehicle): 1.4 fold
